Data: patent US8552000B2, “Therapeutic agent for senile dementia” (Dainippon Sumitomo Pharma Co., Ltd., priority 2003, dated 2013)

Tested on: scopolamine-induced cognitive/memory dysfunction models
Test: one step-through passive avoidance test, scopolamine-induced amnesia
Format: in vivo, Male Wistar rats
Method: Male Wistar rats (7 weeks old) were used. As a test medicament, (1R,2S,3R,4S)—N-|(1R,2R)-2-[4-(1,2-benzisothiazol-3-yl)-1-piperazinyl-methyl]-1-cyclohexylmethyl]-2,3-bicycl[2.2.1]heptanedicarboxylmide (Compound A) was suspended in 0.5% methyl cellulose (MC) solution. As an agent for inducing amnesia, scopolamine (manufactured by Wako Pure Chemical Industries, Ltd., product No. 198-07901), which is an acethylcoline receptor blocker, was dissolved in saline solution (manufactured by TERUMO CORPORATION). Compound A at a dose of 3 mg/kg or 30 mg/kg, or 0.5% MC as a control was orally administered to the animals one hour prior to the training step in the one step-through passive avoidance test, and then, scopolamine at a dose of 0.5 mg/kg or a saline solution as a control was subcutaneously administered to the animals 30 minutes prior to the training step. The volume of each solution to be administered was 5 ml/kg each.
The one step-through passive avoidance test in rats was carried out in the following manners with using an apparatus consisting of a light-dark box and an electric stimulator (manufactured by O'hara & Co., Ltd., product no. PA-2030A) as an experimental apparatus. Namely, on Day 1, after the medicament and the agent for inducing amnesia were administered, the rats were put into the light box of the experimental apparatus where the back of each rat was directed to the dark box. Then, 10 seconds later, a guillotine door set at the border between the dark box and the light box was opened. Due to the habits of the rats, once the rats entered into the dark box, the guillotine door was quickly closed. At three seconds after the entering into the dark box, an electroconvulsive shock (0.5 mA, for 3 seconds) was given to the rats. Again, the guillotine door was opened, and after the rats spontaneously returned to the light box, the animals were transferred into the home cage. The period between the time just after the guillotine door was opened and the time at which the rats entered into the dark box was measured as a step-through latency.
On Day 2 of the experiment, a test was carried out about 24 hours after the training. The procedures of the test were carried out in the same manner to the training step except that an electroconvulsive shock was not given. The step-through latency in the test was measured up to 300 seconds, and the step-through latency over 300 seconds was regarded as 300 seconds. FIG. 1 and FIG. 2 show the effects of Compound A on the scopolamine-induced cognitive/memory dysfunction models in the one step-through passive avoidance test when it was orally administered at a dosage of 3 mg/kg or 30 mg/kg. […] The number of the animals was 15 per group, and the data was expressed in mean±SEM.

SMILES: O=C1[C@@H]2[C@@H]3CC[C@@H](C3)[C@@H]2C(=O)N1C[C@@H]1CCCC[C@H]1CN1CCN(c2nsc3ccccc23)CC1 [Compound A]
- step-through latency during the training (Compound A 3 mg/kg orally one hour prior to training, scopolamine 0.5 mg/kg s.c. 30 minutes prior, vs 0.5% MC+scopolamine): slightly shortened
- step-through latency during the test (Compound A 30 mg/kg orally plus scopolamine 0.5 mg/kg s.c., test about 24 hours after training, vs 0.5% MC+scopolamine): significantly extended
- improving effect of scopolamine-induced cognitive/memory dysfunctions (overall finding of the passive avoidance test in rats, oral administration): exhibited an improving effect

SMILES: CN1[C@@H]2C[C@@H](OC(=O)[C@H](CO)c3ccccc3)C[C@H]1[C@@H]1O[C@@H]12 [scopolamine, reference compound]
- step-through latency during the training (scopolamine 0.5 mg/kg s.c. alone (with 0.5% MC), vs saline solution): did not affect
- step-through latency during the test (scopolamine 0.5 mg/kg s.c. alone (with 0.5% MC), vs saline solution, about 24 hours after training): significantly shorter
